Measurements from patent US20040247524A1, “Method of treatment of an inflammatory disorder with a Vanin-1 antagonist” (priority 2003, published 2004).
Like-named read-outs stand apart in the source and are kept apart here.

Experiments:
[1] = biological target: T1, γ-GCS (Mus musculus, UniProt P97494); experiment: γ-GCS activity in intestine of treated mice; format: in vivo
T1 construct: Determination of γ-GCS Activity and GSH Levels in Liver and Intestine; from tissue; host or cells: liver and intestine of WT and Vanin-1-/- BALB/c mice
T1 sequence (P97494 1-637): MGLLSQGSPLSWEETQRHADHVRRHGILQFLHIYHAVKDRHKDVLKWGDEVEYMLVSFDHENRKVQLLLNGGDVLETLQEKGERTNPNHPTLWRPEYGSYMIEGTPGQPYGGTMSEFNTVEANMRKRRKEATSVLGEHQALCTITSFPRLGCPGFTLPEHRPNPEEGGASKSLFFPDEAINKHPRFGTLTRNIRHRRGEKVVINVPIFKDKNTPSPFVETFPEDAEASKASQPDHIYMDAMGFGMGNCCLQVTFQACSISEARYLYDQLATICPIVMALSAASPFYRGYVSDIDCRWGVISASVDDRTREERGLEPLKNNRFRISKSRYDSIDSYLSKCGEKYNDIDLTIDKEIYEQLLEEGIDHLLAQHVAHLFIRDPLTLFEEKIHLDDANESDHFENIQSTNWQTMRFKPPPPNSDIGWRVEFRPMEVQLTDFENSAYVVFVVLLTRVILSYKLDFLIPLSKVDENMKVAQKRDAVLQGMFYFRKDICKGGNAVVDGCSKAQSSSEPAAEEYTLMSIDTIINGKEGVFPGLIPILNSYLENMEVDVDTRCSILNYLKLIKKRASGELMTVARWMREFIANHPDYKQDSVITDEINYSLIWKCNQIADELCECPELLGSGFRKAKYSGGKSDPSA
T1 sequence (O09172 1-274 partner): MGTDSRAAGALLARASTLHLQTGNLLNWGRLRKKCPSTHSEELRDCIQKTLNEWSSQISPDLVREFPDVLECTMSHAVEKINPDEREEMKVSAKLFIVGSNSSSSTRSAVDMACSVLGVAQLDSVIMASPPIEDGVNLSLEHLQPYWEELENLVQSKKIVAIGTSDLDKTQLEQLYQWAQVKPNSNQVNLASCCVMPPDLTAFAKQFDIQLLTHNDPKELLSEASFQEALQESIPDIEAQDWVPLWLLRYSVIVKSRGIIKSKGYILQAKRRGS
Procedure: (§1) Indomethacin (Sigma) was administered at a dose of 25 mg/kg in 5% sodium carbonate to Vanin-1^−/− (n=5) and WT (n=5) mice in 2 SC injections at 12 h-interval. Mice were sacrificed 20 hrs after the first injection. […] Cystamine was given by gavage 3 times on day 1 and once on day 2 at the dose of 120 mg/kg. The dose was adjusted so as to not induce intestinal inflammation. Mice were sacrificed 5 hours after the last gavage. To evaluate the impact of cystamine on indomethacin treatment, Vanin-1^−/− (n=5) and WT (n=5) mice received cystamine preceding indomethacin injection. In a complement study, indomethacin-treated WT mice (n=5) were supplemented with N-acetylcysteine (NAC) to determine the relationship between GSH depletion and injury. The antioxidant was given by gavage (200 μl of a 150 mg/ml, pH 7 solution) three times a day, starting 12 hrs prior indomethacin treatment.
(§2) γ-GCS activity was determined by the method described by (Seelig, 1984). GSH levels were determined according to Tietze et al., (1969).

[2] = test system: GSH; experiment: GSH levels in intestine of treated mice; format: in vivo, mouse
Procedure: as §1, §2

[3] = test system: Vanin-1; conditions: cited from earlier work
[4] = biological target: T1, γ-GCS; experiment: γ-GCS activity in liver of treated mice; format: in vivo
Procedure: as §1, §2

[5] = test system: GSH; experiment: GSH levels in liver of treated mice; format: in vivo, mouse
Procedure: as §1, §2

[6] = test system: MIP-2, iNOS, COX-2, and COX-1 mRNAs; experiment: Semi-quantitative RT-PCR of inflammatory factors in jejunum; format: in vivo, mouse
Procedure: as §1
Total cellular RNA was isolated from jejunum samples of indomethacin-treated mice, by guanidinium thiocyanate phenol-chloroform extraction.

[7] = test system: jejunum; experiment: Histological examination of intestinal injury; format: in vivo, mouse; conditions: following indomethacin treatment
Procedure: as §1
After sacrifice, jejunum of the indomethacin-treated mice were removed, formalin-fixed and paraffin-embedded. They were cut to 4-μm thickness and stained with hematoxylin-phloxine-saffron. Immunohistochemistry was performed on jejunum cryosections using the anti-Vanin-1 mAb H202-407 modified from Aurrand-Lions et al. (Aurrand-Lions, 1996).

[8] = test system: MPO; experiment: Intestinal myeloperoxidase (MPO) activity; format: in vivo, mouse; conditions: jejunum, after indomethacin treatment
Procedure: as §1, with “treatment. 3-cm intestinal samples taken in the most injured part, i.e. the colon of S. mansoni-infected mice and the jejunum of indomethacin-treated mice. Samples were homogenized in 0.5% hexadecyltrimethyl-ammonium bromide. MPO activity was determined as described previously (Liaudet, 2000).” for “treatment.”

[9] = NAC given to indomethacin-treated mice
[10] = jejunum, Vanin-1−/− mice, indomethacin 2 x 25 mg/kg SC
[11] = as described by Pitari et al. (1994)
[12] = control as in indomethacin-treated animals
[13] = cystamine administered without indomethacin

CC(=O)N[C@@H](CS)C(=O)O [NAC, N-acetylcysteine]
γ-GCS activity, effect [1, 9]: no marked effect | GSH levels, effect [2, 9]: no marked effect

O=C(O)CI [iodoacetate]
type of Vanin-1 (pantetheinase) inhibition [3]: irreversible inhibition

COc1ccc2c(c1)c(CC(=O)O)c(C)n2C(=O)c1ccc(Cl)cc1 [Indomethacin, indomethacin]
γ-GCS ([4]; KO (Vanin-1−/−) mice): 37.9 ± 3.33 | γ-GCS ([4]; WT mice): 23.4 ± 0.72 | γ-GCS activity, change ([4]; following indomethacin treatment): increased | γ-GCS ([1]; KO (Vanin-1−/−) mice): 23.7 ± 2.63 | γ-GCS ([1]; WT mice): 18.4 ± 2.18 | GSH ([5]; KO (Vanin-1−/−) mice): 16.6 ± 1.26 | GSH ([5]; WT mice): 9.50 ± 1.44 | COX-2 and iNOS mRNAs [6, 10]: barely amplified | MIP-2 mRNA [6, 10]: undetectable | COX-2, iNOS and MIP-2 mRNAs ([6]; jejunum, WT mice, indomethacin 2 x 25 mg/kg SC): sharp augmentation | GSH ([2]; KO (Vanin-1−/−) mice): 1.37 ± 0.24 | GSH ([2]; WT mice): 0.56 ± 0.08 | Histology of intestinal injury ([7]; Vanin-1−/− mice): appeared normal | Histology of intestinal injury ([7]; WT mice): flattened mucosal villi | Intestinal MPO activity [8]: dramatically enhanced

CCN1C(=O)C=CC1=O [N-ethyl maleimide]
type of Vanin-1 (pantetheinase) inhibition [3, 11]: irreversible inhibition

NC(=O)CI [iodoacetamide]
type of Vanin-1 (pantetheinase) inhibition [3, 11]: irreversible inhibition

OCCSSCCO [oxidized mercaptoethanol]
type of Vanin-1 (pantetheinase) inhibition [3, 11]: reversible inhibition

c1cc(SSc2ccncc2)ccn1 [4,4′-dithiodipyridine]
type of Vanin-1 (pantetheinase) inhibition [3, 11]: reversible inhibition

NCCSSCCN [Cystamine, cystamine]
γ-GCS ([4]; KO (Vanin-1−/−) mice): 11.2 ± 0.58 | γ-GCS ([4]; WT mice): 10.8 ± 0.63 | γ-GCS activity, change [4, 12]: dramatically reduced | γ-GCS ([1]; KO (Vanin-1−/−) mice): 21.5 ± 2.4 | γ-GCS ([1]; WT mice): 20.2 ± 1.2 | GSH ([5]; KO (Vanin-1−/−) mice): 5.55 ± 1.20 | GSH ([5]; WT mice): 5.36 ± 1.15 | GSH levels, change [5, 12]: dramatically reduced | COX-2 mRNA [6, 13]: moderate upregulation | iNOS and MIP-2 mRNAs [6, 13]: did not change | mRNA expression of inflammatory factors ([6]; cystamine given to indomethacin-treated Vanin-1−/− mice): restored mRNA expression to WT levels | type of Vanin-1 (pantetheinase) inhibition [3, 11]: reversible inhibition | GSH ([2]; KO (Vanin-1−/−) mice): 1.0 ± 0.05 | GSH ([2]; WT mice): 0.90 ± 0.12 | intestinal GSH levels, change ([2]; cystamine administration): reduced

O=C(O)c1cc(SSc2ccc([N+](=O)[O-])c(C(=O)O)c2)ccc1[N+](=O)[O-] [5,5′-dithiobis(2-nitrobenzoic acid)]
type of Vanin-1 (pantetheinase) inhibition [3, 11]: reversible inhibition
